Measurements as given in patent publication US20090149469A1, “Phenyl-[4-(3-phenyl-1h-pyrazol-4-yl)-pyrimidin-2-yl]-amine derivatives as igf-ir inhibitors” (priority 2004, published 2009).

Target: T1, human IGF-IR (Homo sapiens, UniProt P08069)
T1 construct: complete human IGF-IR cDNA: GenBank Acc; No. NM_000875; expressed in transfected cells; host or cells: NIH-3T3 mouse fibroblasts
Assay: cellular Capture ELISA: IGF-I induced autophosphorylation of IGF-IR in NIH-3T3 cells transfected with human IGF-IR
Type: cell-based
Settings: by the methods described above
Procedure: In this assay the activity of the compounds of the invention against Insulin-like growth factor I (IGF-1) induced autophosphorylation of the IGF-IR is determined. The assay is conducted as follows: For the assay NIH-3T3 mouse fibroblasts transfected with human IGF-IR cDNA (complete human IGF-IR cDNA: GenBank Acc. No. NM_000875), prepared as described in Kato et al., J. Biol. Chem. 268, 2655-61, 1993, are used. The cells which overexpress human IGF-IR are cultured in Dulbecco's minimal essential (DMEM) medium, containing 10% Fetal Calf Serum (FCS). For the assay 5,000 cells/well are plated on day 1 on 96-well plates (Costar #3595) in normal growth medium and incubated for 2 days at 37° C. in a standard CO2 cell incubator. […] On day 3 the medium is discarded and the cells are incubated for 24 h in minimal medium (DMEM, containing 0.5% FCS). […]
90 μl/well AP substrate (CDP-Star; obtained from Tropix; Cat. No.: MS100RY) are then added and the plates are incubated for 45 min at RT in the dark, followed by measuring AP activity in a Packard Top Count Microplate Scintillation Counter. The IC50 values for the compounds of formula I are calculated via linear regression analysis using the GraphPad Instat program (GraphPad Software, USA). […]

T1 sequence (P08069 31-1367): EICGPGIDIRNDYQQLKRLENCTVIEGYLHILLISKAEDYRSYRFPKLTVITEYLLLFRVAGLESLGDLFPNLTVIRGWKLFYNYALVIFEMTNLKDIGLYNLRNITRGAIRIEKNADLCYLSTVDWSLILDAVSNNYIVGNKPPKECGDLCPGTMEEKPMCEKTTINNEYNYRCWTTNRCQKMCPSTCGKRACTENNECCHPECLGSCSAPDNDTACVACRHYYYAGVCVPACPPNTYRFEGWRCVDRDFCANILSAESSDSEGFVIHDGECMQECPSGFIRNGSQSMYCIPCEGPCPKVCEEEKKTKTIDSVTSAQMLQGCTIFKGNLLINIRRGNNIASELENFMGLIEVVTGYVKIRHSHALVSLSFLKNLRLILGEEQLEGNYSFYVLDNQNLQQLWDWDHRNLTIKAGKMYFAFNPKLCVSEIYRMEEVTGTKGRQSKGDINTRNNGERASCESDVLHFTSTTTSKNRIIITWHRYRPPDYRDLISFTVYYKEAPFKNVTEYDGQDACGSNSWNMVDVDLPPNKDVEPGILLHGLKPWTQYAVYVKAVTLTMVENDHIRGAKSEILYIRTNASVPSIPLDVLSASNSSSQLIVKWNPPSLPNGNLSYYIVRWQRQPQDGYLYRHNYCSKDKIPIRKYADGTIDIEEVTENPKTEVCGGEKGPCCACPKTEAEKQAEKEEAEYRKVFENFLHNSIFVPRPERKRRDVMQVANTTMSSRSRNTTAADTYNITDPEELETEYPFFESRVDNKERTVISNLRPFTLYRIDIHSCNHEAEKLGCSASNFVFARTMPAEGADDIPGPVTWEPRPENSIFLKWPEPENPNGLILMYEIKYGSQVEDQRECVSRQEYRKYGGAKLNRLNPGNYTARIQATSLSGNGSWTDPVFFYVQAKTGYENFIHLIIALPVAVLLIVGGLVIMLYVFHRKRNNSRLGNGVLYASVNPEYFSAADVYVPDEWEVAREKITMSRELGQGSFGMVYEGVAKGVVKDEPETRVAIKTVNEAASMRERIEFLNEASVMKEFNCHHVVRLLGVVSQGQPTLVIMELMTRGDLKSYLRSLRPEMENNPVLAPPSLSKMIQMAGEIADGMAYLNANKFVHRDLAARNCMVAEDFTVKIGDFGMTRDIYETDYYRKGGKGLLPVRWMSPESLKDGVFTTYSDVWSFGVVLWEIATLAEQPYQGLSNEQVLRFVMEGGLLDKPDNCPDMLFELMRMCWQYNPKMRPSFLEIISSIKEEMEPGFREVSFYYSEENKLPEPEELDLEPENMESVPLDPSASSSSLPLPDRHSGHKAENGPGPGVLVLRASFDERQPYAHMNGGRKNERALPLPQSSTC

## CN(C)CCOc1ccc(Nc2nccc(-c3c[nH]nc3-c3ccc(OCc4ccccc4)cc3)n2)cc1 [Example 6, {4-[3-(4-Benzyloxy-phenyl)-1H-pyrazol-4-yl]-pyrimidin-2-yl}-[4-(2-dimethylamino-ethoxy)-phenyl]-amine]
  inhibition of IGF-1R (in words): shows inhibition
